Measurements as given in patent US20230173005A1 (ASIA UNIVERSITY, priority 2021, published 2023).

Experiments:
[1] = tested on: TNF-α; assay: Cytokine analysis (ELISA), TNF-α; format: in vivo, mouse; conditions: serum ELISA; cisplatin 20 mg/Kg i.p. vs control group
Procedure: (§1) Male ICR mice aged 7-8 weeks (each weighing about 30-32 grams) were divided into 6 groups, 10 mice per group, and the six groups correspond to a control group, an induction group, a positive control group and low-medium-high dose brown Flammulina velutipes water extract groups. The entire process was limited to 10 days. […] Both of the induction and the sacrifice were performed in a fasting state.
(§2) The administration was performed for 10 consecutive days while feeding at around 10 a.m. Normal food was provided during the above period. […] On the day before induction, all […] groups were treated on an empty stomach.
(§3) After sacrificing the mice to collect corresponding blood, and serum was separated and then diluted 10-fold or 5-fold. TNF-α, IL-6 and IL-1β were analyzed according to the multiple antibody sandwich principle by using BioLegend Company's ELISA kits.
(§4) In a 96-well microassay plate, 100 μL of capture antibody was added to each well, and placed at room temperature overnight. […] Finally, 2 equivalents of 100 μL of sulfuric acid as a stop solution was added, and the change in absorbance at a wavelength of 450 nm was measured with a microplate spectrometer. The concentration of cytokines in serum was additionally calculated.

[2] = tested on: superoxide dismutase (SOD); assay: Western blotting of kidney, SOD; format: in vivo, mouse
Procedure: as §1, §2
(§5) The kidneys were homogenized with a PBS solution and diluted 10 folds to form a homogeneous solution, and the homogeneous solution was centrifuged at 12,000 rpm at 4° C. for 20 minutes. The supernatant was taken to quantify each protein concentration, and treated to have a uniform concentration. A protein was added to a protein dye to form a sample, placed in a drying bath at 100° C., and heated for 5 minutes. Then, the sample was injected into 10%, 15% or 8% of colloid prepared with 40% of acrylamide/bisN,N-methylenbisacrylamide, in which the ratio of acrylamide to bisN,N-methylenbisacrylamide was 29:1. […]
(§6) After completion of the transfer, blocking was performed for 1 hour using milk. […] In addition, image data were acquired and analyzed by the Image J system.

[3] = tested on: BAX; assay: Western blotting of kidney, BAX; format: in vivo, mouse
Procedure: as §1, §2, §5, §6

[4] = tested on: PI3K; assay: Western blotting of kidney, PI3K; format: in vivo, mouse; conditions: cisplatin 20 mg/Kg i.p. vs control group
Procedure: as §1, §2, §5, §6

[5] = tested on: NO free radicals; assay: Nitrite analysis of mouse serum; format: in vivo; conditions: cisplatin 20 mg/Kg i.p.
Procedure: as §1, §2
Mouse serum was taken by 100 μL each and added to a new 96-well microassay plate. Then, Griess Reagent was added by the same amount of […]. The Griess reagent was obtained by mixing an aqueous solution of N-(1-naphthyl)ethylenediamine with a 1% sulfanilamide solution dissolved in 5% phosphoric acid in the volumetric ratio of 1:1. Thereafter, the absorbance was measured at a wavelength of 540 nm using a microplate spectrometer (Molecular Devices), so that the ability of removing NO free radicals was measured in each group.

[6] = tested on: Beclin-1; assay: Western blotting of kidney, Beclin-1; format: in vivo, mouse; conditions: cisplatin 20 mg/Kg i.p. vs control group
Procedure: as §1, §2, §5, §6

[7] = tested on: glutathione peroxidase (GPX1); assay: Western blotting of kidney, GPX1; format: in vivo, mouse
Procedure: as §1, §2, §5, §6

[8] = tested on: Nrf2; assay: Western blotting of kidney, Nrf2; format: in vivo, mouse; conditions: cisplatin 20 mg/Kg i.p. vs control group
Procedure: as §1, §2, §5, §6

[9] = tested on: IL-1β; assay: Cytokine analysis (ELISA), IL-1β; format: in vivo, mouse; conditions: serum ELISA; cisplatin 20 mg/Kg i.p. vs control group
Procedure: as §1, §2, §3, §4

[10] = tested on: p62; assay: Western blotting of kidney, p62; format: in vivo, mouse; conditions: cisplatin 20 mg/Kg i.p. vs control group
Procedure: as §1, §2, §5, §6

[11] = tested on: LC3B; assay: Western blotting of kidney, LC3B; format: in vivo, mouse; conditions: cisplatin 20 mg/Kg i.p. vs control group
Procedure: as §1, §2, §5, §6

[12] = tested on: Bcl-2; assay: Western blotting of kidney, Bcl-2; format: in vivo, mouse
Procedure: as §1, §2, §5, §6

[13] = tested on: COX-2; assay: Western blotting of kidney, COX-2; format: in vivo, mouse
Procedure: as §1, §2, §5, §6

[14] = tested on: TLR4; assay: Western blotting of kidney, TLR4; format: in vivo, mouse
Procedure: as §1, §2, §5, §6

[15] = tested on: AKT; assay: Western blotting of kidney, AKT; format: in vivo, mouse; conditions: cisplatin 20 mg/Kg i.p. vs control group
Procedure: as §1, §2, §5, §6

[16] = tested on: IL-6; assay: Cytokine analysis (ELISA), IL-6; format: in vivo, mouse; conditions: serum ELISA; cisplatin 20 mg/Kg i.p. vs control group
Procedure: as §1, §2, §3, §4

[17] = tested on: iNOS; assay: Western blotting of kidney, iNOS; format: in vivo, mouse
Procedure: as §1, §2, §5, §6

[18] = tested on: p-NFκB; assay: Western blotting of kidney, p-NFκB; format: in vivo, mouse
Procedure: as §1, §2, §5, §6

[19] = tested on: HO-1; assay: Western blotting of kidney, HO-1; format: in vivo, mouse; conditions: cisplatin 20 mg/Kg i.p. vs control group
Procedure: as §1, §2, §5, §6

[20] = tested on: mouse model of the acute renal failure induced by cisplatin; assay: Measurement on kidney weight/body weight ratio; format: in vivo; conditions: Amifostine 200 mg/kg i.p. 30 min after cisplatin 20 mg/Kg day 7
Procedure: as §1, §2
Kidneys were removed from the mouse body, and adrenal glands and surrounding fat were removed, washed with saline and then weighed immediately. The weights of the both kidneys were obtained and compared with the weight of the mouse measured on the last day, and the difference between the kidney/weight ratios of the mice was calculated.

[21] = tested on: mouse model of the acute renal failure induced by cisplatin; assay: Weight measurement in cisplatin-induced mice; format: in vivo; conditions: Amifostine 200 mg/kg i.p. 30 min after cisplatin 20 mg/Kg day 7
Procedure: as §1, §2

[22] = tested on: catalase; format: in vivo, mouse; conditions: kidney; Amifostine 200 mg/Kg i.p. or WFV 1000 mg/kg oral in advance
Procedure: as §1, §2, §5, §6

[23] = cisplatin 20 mg/Kg i.p. vs control group
[24] = Amifostine 200 mg/Kg i.p. or WFV 1000 mg/kg oral in advance
[25] = Amifostine 200 mg/Kg i.p. or high-dose WFV (1000 mg/Kg oral) vs induction group
[26] = Amifostine 200 mg/Kg i.p. or high-dose WFV (1000 mg/Kg oral) vs cisplatin induction group

## N.N.[Cl][Pt][Cl] [Cis, cisplatin]
[1]
  concentration of TNF-α: increased
[2]; [23]
  expression level of SOD: decreased
[3]; [23]
  expression level of apoptogenic protein BAX: increased
[4]
  expression level of PI3K: significantly increased
[5]
  expression level of NO free radicals (nitrite in serum): increased remarkably
[6]
  level of Beclin-1: significantly increased
[7]; [23]
  expression level of GPX1: decreased
[8]
  expression level of Nrf2: significantly increased
[9]
  concentration of IL-1β: increased
[10]
  level of p62: significantly increased
[11]
  level of LC3B: significantly increased
[12]; [23]
  expression level of Bcl-2: decreased
[13]; [23]
  expression level of COX-2: significant differences compared with the control group
[14]; [23]
  expression level of TLR4: upward trend
[15]
  expression level of AKT: significantly increased
[16]
  concentration of IL-6: increased
[17]; [23]
  expression level of iNOS: significant differences compared with the control group
[18]; [23]
  expression level of p-NFκB: upward trend
[19]
  expression level of HO-1: significantly increased

## NCCCNCCSP(=O)(O)O [Ami, Amifostine]
[2]; [24]
  expression level of SOD: not decreased
[3]; [25]
  expression level of apoptogenic protein BAX: significantly decreased
[20]
  Kidney weight: 0.55 ± 0.025 g
[7]; [24]
  expression level of GPX1: not decreased
[12]; [25]
  expression level of Bcl-2: increased
[13]; [26]
  expression level of COX-2: decreased
[14]; [26]
  expression level of TLR4: decreased
[21]
  Body weight After: 36.6 ± 0.18 g
[17]; [26]
  expression level of iNOS: decreased
[18]; [26]
  expression level of p-NFκB: decreased
[22]
  expression level of catalase: not decreased
